Results: patent US20230381178A1, “METHODS FOR IMPROVING RENAL FUNCTION WITH A COMBINATION OF A BET BROMODOMAIN INHIBITOR AND A SODIUM DEPENDENT GLUCOSE TRANSPORT 2 INHIBITOR” (Resverlogix Corp., priority 2020, published 2023)

Key:
[1] = patients with established cardiovascular disease and eGFR<60 mL/min/1.73 m^2; monotherapy; p=0.04 vs. baseline (Kulikowski et al 2017); cited from earlier work
[2] = BETonMACE Phase 3 trial post-hoc analysis: eGFR (Cockcroft-Gault, serum creatinine) from baseline to last visit on treatment; assay type: in vivo, human
Description: Apabetalone (RVX-208) was evaluated in a recently completed clinical Phase 3 trial (BETonMACE; NCT02586155) for the effect on MACE in type 2 diabetes patients with low HDL cholesterol (below 40 mg/dL for males and below 45 mg/dL for females) and a recent acute coronary syndrome (ACS) (preceding 7-90 days). All patients received high intensity statin treatment or maximum tolerated statin treatment, which was 20-40 mg daily or a maximum daily dose of 40 mg for rosuvastatin or 40-80 mg daily or a maximum daily dose of 80 mg for atorvastatin.
Patients (n=2425) with ACS in the preceding 7 to 90 days, with type 2 diabetes and low HDL cholesterol (≤40 mg/dl for men, <45 mg/dl for women), receiving intensive or maximum-tolerated therapy with atorvastatin or rosuvastatin, were assigned in double-blind fashion to receive apabetalone 100 mg orally twice daily or matching placebo. Baseline characteristics include female sex (25%), myocardial infarction as index ACS event(74%), coronary revascularization for index ACS (76%), treatment with dual anti-platelet therapy (87%) and renin-angiotensin system inhibitors (91%), median LDL cholesterol 65 mg per deciliter, and median HbA1c 7.3%. The primary efficacy measure is time to first occurrence of cardiovascular death, non-fatal myocardial infarction, or stroke. The study enrolled 2425 patients and the MACE outcome population consisted of 2418 patients.
In the BETonMACE clinical study, a total of N=298 patients (N=150 in RVX-208 treatment group and N=148 in placebo treatment group) were administered an SGLT2 inhibitor (empagliflozin, dapagliflozin, or canagliflozin) in addition to RVX-208 with specified statin therapy (atorvastatin and rosuvastatin) and other guideline-defined treatments. Specifically, a total of 150 patients received both RVX-208 and an SGLT2 inhibitor; a total of 148 received an SGLT2 inhibitor, but no RVX-208; a total of 1062 received RVX-208, but no SGLT2 inhibitor; a total of 1058 received neither RVX-208 or an SGLT2 inhibitor.
Patients who were randomized and received at least one dose of SGLT2 treatment while actively receiving study drug (RVX-208 or placebo) were counted as those receiving a combination of SGLT2 treatment with either RVX-208 or placebo. Patients receiving more than one drug therapy within the SGLT2 inhibitor class were counted only once based upon whichever drug therapy patients continued taking at the end of treatment with study drug (RVX-208 or placebo). In cases where patients were receiving more than one drug therapy within the SGLT2 inhibitor class at the end of treatment with study drug, whichever SGLT2 inhibitor therapy was received for longer was counted.
Estimated glomerular filtration rate (eGFR) was calculated by the central lab using serum creatinine values and the Cockcroft-Gault formula. Serum creatinine was collected as part of the chemistry panel at the following time points: baseline, week 24, week 52, week 76, week 100, and last visit on treatment (LVT). The Cockcroft-Gault formula requires the input of an individual's age, sex, and weight. The last visit on treatment (LVT) timepoint represented the longest study exposure duration for patients receiving RVX-208 or placebo with and without SGLT2 inhibitors and is the focus of this analysis. The median time to LVT (and study drug exposure) for patients with a baseline and LVT measurements for eGFR administered an SGLT2 inhibitor (N=298) was 742 days (2.03 years). For the patients treated with a SGLT2 inhibitor and RVX-208 (N=150), the median time to LVT was 748 days (2.05 years) and for the patients treated with a SGLT2 inhibitor and received placebo (N=148), the median time to LVT was 734 days (2.01 years). No statistical difference was observed between the duration of study drug exposure, indicating a balance was observed between treatment groups. At the LVT timepoint, a total of N=121 patients in the apabetalone treatment group and N=122 patients in the placebo group had eGFR measurements. […]

[3] = BETonMACE, T2DM patients with a recent ACS (Ray et al. 2020); cited from earlier work

COc1cc(OC)c2c(=O)[nH]c(-c3cc(C)c(OCCO)c(C)c3)nc2c1 [RVX-208, 2-(4-(2-hydroxyethoxy)-3,5-dimethylphenyl)-5,7-dimethoxyquinazolin-4(3H)-one]
increase in eGFR [1]: 3.4% | effect on eGFR / renal function ([2]; BETonMACE post-hoc, T2DM patients with a recent ACS): not able to increase median or mean eGFR levels | median eGFR at last visit on treatment (LVT) ([2]; T2DM patients with recent ACS, on statin, RVX-208 100 mg orally twice daily where given, at LVT (median about 2 years)): 96 mL/min | median eGFR at baseline ([2]; T2DM patients with recent ACS, on statin, at baseline): 97 mL/min | median change of eGFR from baseline to LVT ([2]; T2DM patients with recent ACS, FIG. 3): −3.2 mL/min/1.73 m^2 | mean change of eGFR from baseline to LVT ([2]; T2DM patients with recent ACS, FIG. 4): −3.3 mL/min/1.73 m^2 | median eGFR slope from baseline to LVT ([2]; eGFR difference baseline to LVT divided by number of treatment days, monotherapy groups): −0.004 | effect on eGFR versus placebo [3]: did not demonstrate the ability to statistically improve eGFR versus placebo
